Patent publication US8211909B2, “Treatment of antibiotic-resistant bacteria infection” (TaiGen Biotechnology Co., Ltd., priority 2008, dated 2012)
Converted amounts (≈) assume the structure as drawn. Read-outs that look alike come from different tables or passages of the source.

Experiments:
[1] = test system: Methicillin-resistant Staphylococcus aureus (MRSA) isolates; assay: MIC by broth microdilution (CLSI) against CAN-ICU MRSA isolates; format: cell-based; details: for MIC50 / MIC90 / MIC: Staphylococcus aureus; for MIC50: read-out: MIC50; for MIC90: read-out: MIC90
Text: MRSA isolates (n=193) were obtained as part of the Canadian National Intensive Care Unit (CAN-ICU) Study. 19 medical centers from all regions of Canada with active ICUs participated in the CAN-ICU study included. They were requested to only obtain “clinically significant” specimens from patients with a presumed infectious disease. Surveillance swabs, eye, ear, nose and throat swabs were excluded. Anaerobic organisms and fungal organisms were also excluded.
From September 2005-June 2006 (inclusive), each center collected a maximum of 300 consecutive pathogens isolated from blood, urine, tissue/wound, and respiratory specimens (one pathogen per cultured site per patient) of ICU patients. These isolates were shipped to the reference laboratory (Health Sciences Centre, Winnipeg, Canada) on Amies charcoal swabs, subcultured in appropriate media, and stocked in skim milk at −80° C.
All isolates underwent mecA PCR, as well as molecular characterization (including PVL analysis and fingerprinting), as previously described, to assess whether they were community-associated or healthcare-associated (Christianson et al., J Clin Microbiol. 2007, 45 (6): 1904-11; Mulvey et al., J Clin. Microbiol. 2001, 39(10): 3481-5; Mulvey et al., Emerg Infect Dis. 2005,11(6): 844-50; Oliveira et al., Antimicrob Agents Chemother. 2002, 46(7): 2155-61). The isolates were also subtyped using pulsed-field gel electrophoresis (PFGE) following the Canadian standardized protocol as previously described (Mulvey et al., J Clin Microbiol. 2001, 39(10): 3481-5). Their PFGE fingerprints thus obtained were analyzed with BioNumerics v3.5 (Applied Maths St. Marten-Latem, Belgium) using a position tolerance of 1.0 and an optimization of 1.0. Strain relatedness was determined as previously described (Tenover et al., 1995). The fingerprints of the isolates were compared to the national MRSA fingerprint database and were grouped into one of 10 Canadian epidemic MRSA (CMRSA-1, CMRSA-2, etc) as previously described (Mulvey et al., Emerg Infect Dis. 2005,11(6):844-50).
Compound 1 and other antibiotics were tested for their inhibitory activity against the MRSA isolates using the broth microdilution guidelines as stipulated by the Clinical and Laboratory Standards Institute.

[2] = test system: H. pylori isolates; assay: MIC by agar dilution against 200 H. pylori isolates (Taiwan); format: cell-based, Helicobacter pylori
Protocol: MICs were determined using the agar dilution methods recommended by the Clinical and Laboratory Standards Institute (CLSI-M100-S18).

[3] = test system: S. pneumoniae; assay: CANWARD 2007 gram-positive cocci, CLSI broth microdilution; format: cell-based, Streptococcus pneumoniae; design: MIC50 / MIC90: unit not given here
Protocol: (§1) From January-December 2007, 12 hospitals across Canada submitted isolates from patients attending hospital clinics, emergency rooms, medical and surgical wards, and intensive care units. 7881 isolates (CANWARD 2007) were collected including 3473 gram-positive cocci. Susceptibility testing for Compound 1 and Levofloxacin was performed using the Clinical and Laboratory Standards Institute broth microdilution.

[4] = test system: Staphylococcus epidermidis (MSSE, MRSE); assay: as above; format: cell-based; design: MIC50 / MIC90: unit not given beside the values
Protocol: as §1

[5] = test system: E. faecalis; assay: as above; format: cell-based; design: unit not given beside the values; details: E. faecalis (81)
Protocol: as §1

[6] = test system: S. aureus (MSSA, CA-MRSA, HA-MRSA, VISA, VRSA); assay: CANWARD 2007 / NARSA gram-positive cocci, CLSI broth microdilution; format: cell-based, Staphylococcus aureus; design: MIC50 / MIC90: unit not given here
Protocol: as §1

[7] = test system: Staphylococcus aureus strains (MRSA, hVISA, VISA, VRSA, quinolone-resistant MRSA); assay: MIC by agar dilution against Staphylococcal strains (MRSA, hVISA, VISA, VRSA, quinolone-resistant MRSA); format: cell-based; details: for MIC50 / MIC90 / MIC: Staphylococcus aureus
Protocol: Compound 1 was tested for its inhibitory effect against 26 Methicillin-resistant Staphylococcus aureus (MRSA) strains, 2 hetero-Vancomycin intermediate Staphylococcus aureus (hVISA) strains, 24 Vancomycin-intermediate Staphylococcus aureus (VISA) strains, 5 Vancomycin-resistant Staphylococcus aureus (VRSA) strains, and 31 quinolone-resistant Vancomycin-susceptibale MRSA strains with defined mutations in QRDR. These mutations were determined by sequencing analysis of the QRDR (gyrA, gyrB, grlA, and grlB). Efflux testing was performed by the reserpine method (Brenwald, et al., Antimicrob. Agents Chemother. 1998, 42: 2032-2035).

[8] = test system: Vancomycin-resistant E. faecalis; assay: MIC by agar dilution (CLSI-M100-S18), Taiwan Enterococci isolates; format: cell-based, Enterococcus faecalis
Protocol: Compound 1 was tested for its inhibitory effect against multidrug-resistant Methicillin-resistant Staphylococcus aureus and Enterococci obtained by 10 medical centers in all regions of Taiwan. MICs were determined using the agar dilution methods recommended by the Clinical and Laboratory Standards Institute (CLSI-M100-S18).

[9] = MRSA / USA100, USA 100/800 (HA-MRSA)
[10] = MRSA / USA200, USA 200 (HA-MRSA)
[11] = MRSA / USA300, USA 300 (CA-MRSA)
[12] = MRSA / USA400, USA 400 (CA-MRSA)
[13] = MRSA / USA600, USA 600 (HA-MRSA)
[14] = Helicobacter pylori, 200 isolates of H. pylori
[15] = hVISA(2) + VISA (24) + VRSA (5)
[16] = Enterococcus faecalis, Vancomycin-resistant E. faecalis (n = 34)

With `COc1c(N2C[C@@H](C)C[C@H](N)C2)ccc2c(=O)c(C(=O)O)cn(C3CC3)c12` [Compound 1, (3S,5S)-7-[3-amino-5-methyl-piperidinyl]-1-cyclopropyl-1,4-dihydro-8-methoxy-4-oxo-3-quinolinecarboxylic acid] the “activity against community-associated versus healthcare-associated MRSA strains (in words)” value ([1]; CA-MRSA vs HA-MRSA strains) was “more active against community-associated-MRSA strains than healthcare-associated-MRSA strains”, the “inhibition of MRSA (in words)” value ([1]; MRSA isolates) was “effectively inhibited” and the MIC50 [1, 9] was 4 µg/mL (≈ 10.8 µM). For the same molecule, the MIC90 [1, 9] was > 4 µg/mL, the MIC50 [1, 10] was 2 µg/mL (≈ 5.38 µM) and the MIC90 [1, 10] was 2 µg/mL (≈ 5.38 µM). It also gave an MIC50 [1, 11] of 0.5 µg/mL (≈ 1.35 µM), an MIC90 [1, 11] of 0.5 µg/mL (≈ 1.35 µM) and an MIC50 [1, 12] of 0.06 µg/mL (≈ 0.162 µM). The MIC90 [1, 12] was 0.06 µg/mL (≈ 0.162 µM), the MIC50 [1, 13] was 2 µg/mL (≈ 5.38 µM) and the MIC90 [1, 13] was 2 µg/mL (≈ 5.38 µM). The MIC50 ([1]; MRSA (n = 193)) was 4 µg/mL (≈ 10.8 µM), the MIC90 ([1]; MRSA (n = 193)) was > 4 µg/mL and the MIC ([1]; MRSA (n = 193), read-out: MIC Range Max) was > 4 µg/mL. The MIC ([1]; MRSA (n = 193), read-out: MIC Range Min) was 0.03 µg/mL (≈ 0.0808 µM), the “inhibition (in words)” value ([2]; H. pylori isolates) was “effectively inhibited” and the “inhibition compared with other quinolones (in words)” value ([2]; H. pylori isolates) was “more effective in inhibiting the isolates of H. pylori than Ciprofloxacin, Levofloxacin, and Moxifloxacin, and comparable to Gemifloxacin”. For the same molecule, the MIC50 [2, 14] was 60 µg/mL (≈ 162 µM), the MIC90 [2, 14] was 250 µg/mL (≈ 673 µM) and the “activity compared with Levofloxacin (in words)” value ([3]; PenI-SPN, PenR-SPN, CipR-SPN) was “more active than Levofloxacin”. For the same molecule, the MIC50 ([3]; SPN CipR (29)) was 0.03, the MIC90 ([3]; SPN CipR (29)) was 0.12 and the MIC50 ([3]; SPN PenI (103)) was 0.015/0.015. The MIC90 ([3]; SPN PenI (103)) was 0.015/0.015, the MIC50 ([3]; SPN PenR (34)) was 0.015 and the MIC90 ([3]; SPN PenR (34)) was 0.03. The MIC50 ([3]; SPN PenS (519)) was 0.015/0.015, the MIC90 ([3]; SPN PenS (519)) was 0.015/0.015 and the MIC50 ([3]; SPN-All (656)) was 0.015/0.015. The MIC90 ([3]; SPN-All (656)) was 0.015/0.015, the “activity compared with Levofloxacin (in words)” value ([4]; MRSE) was “more active than Levofloxacin” and the MIC50 ([4]; MRSE (9)) was 2/2. The MIC90 ([4]; MRSE (9)) was 2/2, the MIC50 ([4]; MSSE (32)) was 0.03 and the MIC90 ([4]; MSSE (32)) was 0.5. For the same molecule, the MIC50 [5] was 0.12, the MIC90 [5] was 1 and the MIC50 ([6]; CA-MRSA (23)) was 0.25. The MIC90 ([6]; CA-MRSA (23)) was 0.5, the MIC50 ([6]; HA-MRSA (91)) was 4/>4 and the MIC90 ([6]; HA-MRSA (91)) was 4/>4. The “activity compared with Levofloxacin (in words)” value ([6]; MRSA, VISA, VRSA) was “more active than Levofloxacin”, the MIC50 ([6]; MSSA (372)) was 0.03 and the MIC90 ([6]; MSSA (372)) was 0.12. The MIC50 ([6]; VISA (12), NARSA isolates) was 1, the MIC90 ([6]; VISA (12), NARSA isolates) was 2 and the “median MIC (single value under head MIC50/MIC90)” value ([6]; VRSA (7), NARSA isolates) was 2. The “inhibition (in words)” value ([7]; Methicillin-resistant, hVISA, VISA, VRSA and quinolone-resistant Vancomycin-susceptible MRSA isolates) was “effectively inhibited”, the MIC50 ([7]; MRSA (26)) was 0.03 µg/mL (≈ 0.0808 µM) and the MIC90 ([7]; MRSA (26)) was 0.06 µg/mL (≈ 0.162 µM). The MIC50 ([7]; Quinolone-resistant MRSA (31)) was 1 µg/mL (≈ 2.69 µM), the MIC90 ([7]; Quinolone-resistant MRSA (31)) was 2 µg/mL (≈ 5.38 µM) and the MIC50 [7, 15] was 1 µg/mL. It also gave an MIC90 [7, 15] of 2 µg/mL, an MIC ([7]; read-out: MIC Range, MRSA (26)) of 0.016 to 0.06 µg/mL (≈ 0.0431 to 0.162 µM) and an MIC ([7]; read-out: MIC Range, Quinolone-resistant MRSA (31)) of 0.5 to 4 µg/mL (≈ 1.35 to 10.8 µM). The MIC ([7]; read-out: MIC Range, hVISA(2) + VISA (24) + VRSA (5)) was 0.06 to 2 µg/mL, the MIC ([7]; read-out: MICs, against these strains) was 0.06 to 4 µg/mL (≈ 0.162 to 10.8 µM) and the MIC50 [8, 16] was 4 µg/mL (≈ 10.8 µM). For the same molecule, the MIC90 [8, 16] was 4 µg/mL (≈ 10.8 µM), the “MIC Range” value ([8]; Vancomycin-resistant E. faecalis (n = 34)) was 0.12 to 8 µg/mL and the “inhibition (in words)” value ([8]; Vancomycin-resistant Enterococcus faecalis) was “effective”.
